The assay relates to Eimeria Tenella (Weybridge) sporozites. The experiment in a line: in vitro anti-coccidial activity, primary explant cultures of chick embryo liver cells with sporozites. In kind it is cell-based. The note with it: with sulphaquinoxaline 0.01 μg/ml and diaveridine 0.031 μg/ml. Here is the method: The anti-coccidial activity of compounds of formula (III) alone and in combination with a mixture of diaveridine (DV) and sulphaquinoxaline (SQX) in vitro was tested according to the following procedure.
Using standard test procedures employing primary explant cultures of chick embryo liver cells and a suspension of Eimeria Tenella (Weybridge) sporozites the activity of the compounds was determined at various concentrations. In the above test, each test compound was used either alone or in combination with sulphaquinoxaline (0.01 μg/ml) and diaveridine (0.031 μg/ml). It should be noted that the minimum active anti-coccidial amounts of sulphaquinoxaline and diaveridine are 0.024 μg/ml and 0.098 μg/ml respectively.
The following results were obtained wherein activity is expressed as follows: […]

`COC(=O)C1=NN(C)c2nc(N)[nH]c(=O)c2C(c2cc(OC)c(OC)c(OC)c2)=C1` [Example 6, 8-Amino-3-carbomethoxy-1-methyl-5-(3,4,5-trimethoxyphenyl)-1H-pyrimido{4,5-c}-1,2-diazepin-6(7H)-one]: the “Activity, with DV/SQX” value (100 μg/ml) was 5 (No parasite development).
Regarding `CCOC(=O)C1=NN(C)c2nc(N)[nH]c(=O)c2C(c2ccc(OC)cc2OC)=C1` [Example 7, 8-Amino-3-carbethoxy-1-methyl-5-(2,4-dimethoxyphenyl)-1H-pyrimido{4,5-c}-1,2-diazepin-6(7H)-one], the “Activity, with DV/SQX” value reads like this: (25 μg/ml) 5 (No parasite development); (100 μg/ml) 5 (No parasite development).

The values are drawn from patent US4260758A, “Pyrazolo (3,4-d) pyrimidines and methods of making” (Burroughs Wellcome Co., priority 1979, dated 1981).
